Measurements as given in ChEMBL document CHEMBL4033736, “A new type of pharmacological chaperone for GM1-gangliosidosis related human lysosomal β-galactosidase: N-Substituted 5-amino-1-hydroxymethyl-cyclopentanetriols” (Bioorg Med Chem Lett, 2017).
Substitutions are numbered along the chain they refer to. Active and inactive are the calls of the source. The rule behind the calls is not given here.

What was measured:
Beta-galactosidase [1] = target: T1, Beta-galactosidase (Bos taurus, UniProt Q58D55); test: Competitive inhibition of Bovine liver beta-galactosidase using 4-nitrophenyl beta-D-galactopyranoside as substrate pre-incubated for up to 5 mins before substrate addition
T1 sequence (Q58D55 whole entry): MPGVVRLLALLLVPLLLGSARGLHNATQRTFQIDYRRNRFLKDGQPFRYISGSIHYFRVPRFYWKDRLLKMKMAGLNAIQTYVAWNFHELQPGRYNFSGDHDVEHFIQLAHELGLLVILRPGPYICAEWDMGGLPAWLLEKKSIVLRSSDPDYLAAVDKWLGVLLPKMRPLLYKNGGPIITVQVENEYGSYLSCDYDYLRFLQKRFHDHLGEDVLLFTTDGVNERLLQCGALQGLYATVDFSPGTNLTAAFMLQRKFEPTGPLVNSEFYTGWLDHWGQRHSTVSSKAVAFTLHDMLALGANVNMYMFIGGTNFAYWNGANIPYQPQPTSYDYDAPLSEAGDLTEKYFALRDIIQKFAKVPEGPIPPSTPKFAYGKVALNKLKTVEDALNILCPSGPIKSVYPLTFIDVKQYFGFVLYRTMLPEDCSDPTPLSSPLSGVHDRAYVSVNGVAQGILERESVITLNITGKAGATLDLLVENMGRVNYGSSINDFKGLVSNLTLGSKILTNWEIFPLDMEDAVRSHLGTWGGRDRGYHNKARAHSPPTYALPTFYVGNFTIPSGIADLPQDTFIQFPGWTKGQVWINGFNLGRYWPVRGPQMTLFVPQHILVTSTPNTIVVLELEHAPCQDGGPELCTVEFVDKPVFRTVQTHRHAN

[2] = Competitive inhibition of Saccharomyces cerevisiae alpha-glucosidase using 4-nitrophenyl alpha-[…] as substrate pre-incubated for up to 5 mins before substrate addition
[3] = Competitive inhibition of Agrobacterium sp. beta-glucosidase using 4-nitrophenyl beta-D-galactopyranoside as substrate pre-incubated for up to 5 mins before substrate addition
[4] = Competitive inhibition of Fabrazyme (human recombinant alpha-galactosidase) using 4-nitrophenyl alpha-galactopyranoside as substrate pre-incubated for up to 5 mins before substrate addition
[5] = Competitive inhibition of Escherichia coli lacZ beta-galactosidase using 4-nitrophenyl beta-D-galactopyranoside as substrate pre-incubated for up to 5 mins before substrate addition
[6] = target: T2, Lysosomal acid glucosylceramidase (Homo sapiens, UniProt P04062); test: Competitive inhibition of recombinant beta-glucocerebrosidase (unknown origin) using 4-nitrophenyl beta-D-[…] as substrate pre-incubated for up to 5 mins before substrate addition
T2 sequence (P04062 whole entry): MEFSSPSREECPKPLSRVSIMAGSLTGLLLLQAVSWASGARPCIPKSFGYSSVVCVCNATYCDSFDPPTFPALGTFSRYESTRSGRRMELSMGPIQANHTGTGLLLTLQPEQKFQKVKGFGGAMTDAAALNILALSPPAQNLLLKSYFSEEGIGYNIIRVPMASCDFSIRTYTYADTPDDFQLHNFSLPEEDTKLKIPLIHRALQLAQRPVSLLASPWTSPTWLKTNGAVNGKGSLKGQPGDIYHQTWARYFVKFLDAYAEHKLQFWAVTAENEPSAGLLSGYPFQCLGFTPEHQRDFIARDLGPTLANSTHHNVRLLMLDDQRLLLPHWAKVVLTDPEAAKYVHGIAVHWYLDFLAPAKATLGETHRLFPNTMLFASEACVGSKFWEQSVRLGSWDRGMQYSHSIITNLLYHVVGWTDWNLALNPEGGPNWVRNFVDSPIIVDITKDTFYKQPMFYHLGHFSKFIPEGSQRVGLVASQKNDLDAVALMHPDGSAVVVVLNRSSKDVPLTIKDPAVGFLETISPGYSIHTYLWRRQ

Beta-galactosidase [7] = target: T3, Beta-galactosidase (Homo sapiens, UniProt P16278); test: Competitive inhibition of human fibroblast lysosomal beta-galactosidase using 4-methylumbelliferyl-beta-D-galactopyranoside as substrate pre-incubated for up to 5 mins before substrate addition and measured after 30 mins
T3 sequence (P16278 whole entry): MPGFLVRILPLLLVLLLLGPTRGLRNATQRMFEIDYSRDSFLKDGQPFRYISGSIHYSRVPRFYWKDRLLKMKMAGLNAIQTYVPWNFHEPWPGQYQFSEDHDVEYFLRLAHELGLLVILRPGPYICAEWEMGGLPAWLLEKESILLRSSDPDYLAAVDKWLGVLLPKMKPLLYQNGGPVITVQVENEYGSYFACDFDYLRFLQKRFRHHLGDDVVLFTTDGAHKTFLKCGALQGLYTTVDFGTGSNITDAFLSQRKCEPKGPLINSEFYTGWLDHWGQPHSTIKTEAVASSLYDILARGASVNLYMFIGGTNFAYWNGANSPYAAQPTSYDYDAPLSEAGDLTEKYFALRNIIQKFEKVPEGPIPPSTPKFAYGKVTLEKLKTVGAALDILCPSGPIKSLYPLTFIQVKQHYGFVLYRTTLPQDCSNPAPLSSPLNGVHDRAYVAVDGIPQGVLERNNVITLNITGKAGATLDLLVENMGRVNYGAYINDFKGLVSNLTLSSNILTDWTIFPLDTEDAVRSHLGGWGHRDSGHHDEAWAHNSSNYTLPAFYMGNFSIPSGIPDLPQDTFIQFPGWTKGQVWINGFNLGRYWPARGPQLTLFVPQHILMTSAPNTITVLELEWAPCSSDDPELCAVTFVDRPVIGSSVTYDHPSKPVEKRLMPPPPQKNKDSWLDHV

[8] = tested on: T4, Beta-galactosidase (Homo sapiens), P16278 [R201C]; test: Chaperone activity at beta-galactosidase R201C mutant isolated from human patient fibroblasts assessed as increase in enzyme activity at 10 uM using 4-nitrophenyl beta-D-galactopyranoside as substrate relative to untreated control
T4 sequence (whole entry): T3 sequence (P16278 whole entry) with R201C

[9] = tested on: T4, Beta-galactosidase (Homo sapiens), P16278 [R201C]; test: Chaperone activity at beta-galactosidase R201C mutant isolated from human patient fibroblasts assessed as increase in enzyme activity at 0.1 uM using 4-nitrophenyl beta-D-galactopyranoside as substrate relative to untreated control
[10] = tested on: T4, Beta-galactosidase (Homo sapiens), P16278 [R201C]; test: Chaperone activity at beta-galactosidase R201C mutant isolated from human patient fibroblasts assessed as increase in enzyme activity at 1 uM using 4-nitrophenyl beta-D-galactopyranoside as substrate relative to untreated control
[11] = tested on: T4, Beta-galactosidase (Homo sapiens), P16278 [R201C]; test: Chaperone activity at beta-galactosidase R201C mutant isolated from human patient fibroblasts assessed as increase in enzyme activity at 0.2 uM using 4-nitrophenyl beta-D-galactopyranoside as substrate relative to untreated control
[12] = tested on: T4, Beta-galactosidase (Homo sapiens), P16278 [R201C]; test: Inhibition of beta-galactosidase R201C mutant isolated from human patient fibroblasts at 1 uM using 4-nitrophenyl beta-D-galactopyranoside as substrat
[13] = tested on: T4, Beta-galactosidase (Homo sapiens), P16278 [R201C]; test: Chaperone activity at beta-galactosidase R201C mutant isolated from human patient fibroblasts assessed as increase increase in thermal stability at 0.2 uM at 48 degC by thermal stability assay
[14] = tested on: T4, Beta-galactosidase (Homo sapiens), P16278 [R201C]; test: Chaperone activity at beta-galactosidase R201C mutant isolated from human patient fibroblasts assessed as increase in enzyme activity at 0.05 uM using 4-nitrophenyl beta-D-galactopyranoside as substrate relative to untreated control

Compound	Ki (Beta-galactosidase [1]) [µM]	Ki [2] [µM]	Ki [3] [µM]	Ki [4] [µM]	Ki [5] [µM]	Ki [6] [µM]	Ki (Beta-galactosidase [7]) [µM]	fold change (FC) [8]	fold change (FC) [9]	fold change (FC) [10]	fold change (FC) [11]	inhibition [12]	Activity [13]	Activity [10]	fold change (FC) [14]
N#CCCCCCN[C@H]1[C@H](O)[C@@H](O)[C@@H](O)[C@H]1CO	0.11	> 2000	0.006	> 2000	0.13	10.7									
OC[C@@H]1[C@H](O)[C@H](O)[C@@H](O)[C@@H]1N1CCCC1		> 2000	1.8	> 2000	33	123									
CCCCCCCCN[C@@H]1C=C(CO)[C@H](O)[C@H](O)[C@H]1O		> 2000	7.7	> 2000	2.8	83	0.51								
CN(C)c1cccc2c(S(=O)(=O)NCCCCCCN(C)[C@H]3[C@H](O)[C@@H](O)[C@@H](O)[C@H]3CO)cccc12		> 2000	0.0028	> 2000	0.016	0.001									
CN(C)c1cccc2c(S(=O)(=O)NCCCCCCN[C@H]3[C@H](O)[C@@H](O)[C@@H](O)[C@H]3CO)cccc12	0.0053	> 2000	0.0012	238	0.01	0.019	0.29	7.4	4	6					
N#CCCCN[C@H]1[C@H](O)[C@@H](O)[C@@H](O)[C@H]1CO	0.13	> 2000	0.0024	> 2000	0.068	10.3									
NCCCCCCN[C@H]1[C@H](O)[C@@H](O)[C@@H](O)[C@H]1CO	31	> 2000	0.096	> 2000	16	54.2	9.2				5	Active	Active	inactive	4
